The target of one assay is Substance-P receptor (Homo sapiens, UniProt P25103). The assay is described as follows: Binding affinity of compound was determined from inhibition of [125I]- substance P binding to the hNK1 receptor in CHO cells. It counts as cell-based.
Assay [1] concerns the target T1, Substance-K receptor (Homo sapiens) (UniProt P21452).
T1 sequence (whole entry): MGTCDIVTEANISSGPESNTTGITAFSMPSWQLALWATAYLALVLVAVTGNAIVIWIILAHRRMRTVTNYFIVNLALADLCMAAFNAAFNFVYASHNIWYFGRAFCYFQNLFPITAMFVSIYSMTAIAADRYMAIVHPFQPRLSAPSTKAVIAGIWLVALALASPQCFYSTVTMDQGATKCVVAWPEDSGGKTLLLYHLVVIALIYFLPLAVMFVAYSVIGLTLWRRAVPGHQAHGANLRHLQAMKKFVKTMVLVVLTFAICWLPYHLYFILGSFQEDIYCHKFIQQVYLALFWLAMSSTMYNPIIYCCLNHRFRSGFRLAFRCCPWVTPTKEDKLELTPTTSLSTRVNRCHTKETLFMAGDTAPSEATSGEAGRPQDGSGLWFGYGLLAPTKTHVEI
The assay is described as follows: Binding affinity to Tachykinin receptor 2.

Assay [2] deals with T2, Neuromedin-K receptor (Homo sapiens) (UniProt P29371).
T2 sequence (whole entry): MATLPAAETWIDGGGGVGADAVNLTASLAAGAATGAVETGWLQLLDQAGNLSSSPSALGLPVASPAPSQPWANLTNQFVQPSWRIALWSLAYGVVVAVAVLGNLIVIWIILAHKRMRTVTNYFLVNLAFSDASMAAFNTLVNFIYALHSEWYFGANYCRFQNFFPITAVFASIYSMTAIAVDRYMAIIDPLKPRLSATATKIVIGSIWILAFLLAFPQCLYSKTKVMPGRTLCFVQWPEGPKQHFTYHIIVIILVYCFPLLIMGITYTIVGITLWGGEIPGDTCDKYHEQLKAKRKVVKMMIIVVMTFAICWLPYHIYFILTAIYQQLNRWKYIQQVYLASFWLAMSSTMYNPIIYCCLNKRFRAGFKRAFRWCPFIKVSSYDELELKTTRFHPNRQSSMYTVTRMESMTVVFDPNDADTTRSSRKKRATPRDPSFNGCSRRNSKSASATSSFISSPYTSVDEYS
Briefly: Binding affinity to Tachykinin receptor 3.

SMILES strings stand for the structures.

Substance-P receptor, sequence (P25103 whole entry): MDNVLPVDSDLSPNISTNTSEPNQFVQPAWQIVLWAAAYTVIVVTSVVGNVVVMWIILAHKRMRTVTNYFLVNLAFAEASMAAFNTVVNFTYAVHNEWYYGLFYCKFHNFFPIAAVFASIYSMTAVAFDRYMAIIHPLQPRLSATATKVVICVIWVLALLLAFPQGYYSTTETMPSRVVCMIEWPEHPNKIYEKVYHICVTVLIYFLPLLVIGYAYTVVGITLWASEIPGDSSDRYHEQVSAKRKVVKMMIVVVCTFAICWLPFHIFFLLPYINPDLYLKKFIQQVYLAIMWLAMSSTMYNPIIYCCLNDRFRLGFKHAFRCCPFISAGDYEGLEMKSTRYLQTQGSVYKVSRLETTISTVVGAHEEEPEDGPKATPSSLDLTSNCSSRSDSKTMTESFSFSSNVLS

A word on the IC50: it is the concentration at which inhibition is half-maximal. Low readings indicate higher potency, high ones lower potency. At Substance-P receptor, `Cc1cc(C)cc(COCC(N)C2c3ccccc3C=Cc3ccccc32)c1` (centres undefined) displayed an IC50 of 80 nM. On Substance-P receptor, `Cc1cc(C)cc(COC[C@H](N)c2ccccc2)c1` yielded an IC50 of 2500 nM.

Regarding `Cc1cc(C)cc(COCC(N)C2c3ccccc3CCc3ccccc32)c1` (centres undefined), the IC50 on Substance-P receptor is 93 nM. Take `Cc1cc(C)cc(COC[C@@H](N)c2ccccc2)c1`: the Affinity in assay [1] and in assay [2] was more than 10 µM in each case. Further, on Substance-P receptor, the IC50 is 55 nM. Turning to `Cc1cc(C)cc(COCC(N)C(c2ccccc2)c2ccccc2)c1` (centres undefined), at Substance-P receptor, the IC50 was 9.3 nM.

At Substance-P receptor, `Cc1cc(C)cc(COCC(N)Cc2ccccc2)c1` (centres undefined) gave an IC50 of 483 nM.

Take `Cc1cc(C)cc(COCC(N)Cc2cccc3ccccc23)c1` (centres undefined): the IC50 at Substance-P receptor was 1160 nM.

The values above are taken from ChEMBL document CHEMBL1127966, “Acyclic NK1 antagonists: Replacements for the benzhydryl group” (Bioorg Med Chem Lett, 1994).
